Measurements as given in US6831199B1, “Pyrimidine compounds and derivatives thereof” (G. D. Searle & Co., priority 1995, dated 2004).
Counter-ions that a name gives are not always drawn.

What was measured:
[1] = biological target: T1, Human vitronectin receptor (αvβ3) (Homo sapiens, UniProt P05106+P06756); test: Vitronectin adhesion assay (solid phase receptor assay, competition with biotinylated vitronectin); type: binding; settings: read-out: AvB3 IC50
T1 construct: Human vitronectin receptor (αvβ3) was purified from human placenta; from tissue; host or cells: human placenta
Experimental: VITRONECTIN ADHESION ASSAY
Assay buffer, OPD substrate tablets, and RIA grade BSA were obtained from Sigma (St. Louis, Mo.). Anti-biotin antibody was obtained from Calbiochem (La Jolla, Calif.). Linbro microtiter plates were obtained from Flow Labs (McLean, Va.). ADP reagent was obtained from Sigma (St. Louis, Mo.).
(§1) Solid Phase Receptor Assays
(§2) The purified human vitronectin receptor (αvβ3) was diluted from stock solutions to 1.0 μg/mL in Tris-buffered saline containing 1.0 mM Ca^++, Mg^++, and Mn^++, pH 7.4 (TBS^+++). The diluted receptor was immediately transferred to Linbro microtiter plates at 100 μL/well (100 ng receptor/well). The plates were sealed and incubated overnight at 4° C. to allow the receptor to bind to the wells. All remaining steps were at room temperature. The assay plates were emptied and 200 μL of 1% RIA grade BSA in TBS^+++(TBS^+++/BSA) were added to block exposed plastic surfaces. Following a 2 hour incubation, the assay plates were washed with TBS^+++ using a 96 well plate washer. Logarithmic serial dilution of the test compound and controls were made starting at a stock concentration of 2 mM and using 2 nM biotinylated vitronectin in TBS^+++/BSA as the diluent. This premixing of labeled ligand with test (or control) ligand, and subsequent transfer of 50 μL aliquots to the assay plate was carried out with a CETUS Propette robot; the final concentration of the labeled ligand was 1 nM and the highest concentration of test compound was 1.0×10^−4 M. The competition occurred for two hours after which all wells were washed with a plate washer as before. Affinity purified horseradish peroxidase labeled goat anti-biotin antibody was diluted 1:3000 in TBS^+++/BSA and 125 μL were added to each well. After 30 minutes, the plates were washed and incubated with OPD/H2O2 substrate in 100 mM/L Citrate buffer, pH 5.0. The plate was read with a microtiter plate reader at a wavelength of 450 nm and when the maximum-binding control wells reached an absorbance of about 1.0, the final A450 were recorded for analysis. The data were analyzed using a macro written for use with the EXCEL™ spreadsheet program. The mean, standard deviation, and % CV were determined for duplicate concentrations. The mean A450 values were normalized to the mean of four maximum-binding controls (no competitor added)(B-MAX). The normalized values were subjected to a four parameter curve fit algorithm [Rodbard et al., Int.

[2] = biological target: T2, Human fibrinogen receptor (αIIbβ3) (Homo sapiens, UniProt P05106+P08514); test: Purified IIb/IIIa receptor assay (solid phase receptor assay, competition with biotinylated vitronectin); type: binding; settings: read-out: IIb/IIIa IC50
T2 construct: Human fibrinogen receptor (αIIbβ3) was purified from outdated platelets; from tissue; host or cells: outdated human platelets
Experimental: PURIFIED IIb/IIIa RECEPTOR ASSAY
Human fibrinogen receptor (αIIbβ3) was purified from outdated platelets. […] Biotinylated human vitronectin was prepared by coupling NHS-biotin from Pierce Chemical Company (Rockford, Ill.) to purified vitronectin as previously described. […] Anti-biotin antibody was obtained from Calbiochem (La Jolla, Calif.). Linbro microtiter plates were obtained from Flow Labs (McLean, Va.). ADP reagent was obtained from Sigma (St. Louis, Mo.).
as §1
as §2, with “human fibrinogen” for “human vitronectin”, “receptor (αIIbβ3)” for “receptor (αvβ3)”, “in TBS^+++ (TBS^+++/BSA)” for “in TBS^+++(TBS^+++/BSA)”, “with […]” for “with OPD/H2O2”, “mM/L citrate” for “mM/L Citrate”, “fit algorithm, [Robard” for “fit algorithm [Rodbard”

Row | Compound | IC50 [1] | IC50 [2]
1 | CC1(C)CN=C(Nc2cccc(C(=O)NCC(=O)NC(CC(=O)O)c3cc(Cl)cc(Cl)c3)c2)NC1 (racemic) [Example 367, (±)3,5-dichloro-β-[[2-[[[3-[(1,4,5,6-tetrahydro-5,5-dimethylpyrimidin-2-yl)amino]phenyl]carbonyl]amino]acetyl]amino]benzenepropanoic acid, trifluoroacetate salt] | 0.35 nM | 1540 nM
2 | O=C(O)CC(NC(=O)CNC(=O)c1cccc(NC2=NCCCN2)c1)c1cc(Cl)cc(Br)c1O (racemic) [Example 236, (±)3-bromo-5-chloro-2-hydroxy-β-[[2-[[[3-[(1,4,5,6-tetrahydropyrimidin-2-yl)amino]phenyl]carbonyl]amino]acetyl]amino]benzenepropanoic acid, trifluoroacetate salt, monohydrate] | 0.53 nM | 1250 nM
3 | N=C(N)Nc1cccc(C(=O)NCC(=O)NC(CC(=O)O)c2cncc(Br)c2)c1 (racemic) [Example 235, (±)β-[[2-[[[3-[(aminoiminomethyl)amino]phenyl]carbonyl]amino]acetyl]amino]-5-bromopyridine-3-propanoic acid, bis(trifluoroacetate)salt, monohydrate] | 0.54 nM | 29.9 nM
4 | CCOC(=O)CCNC(=O)CNC(=O)c1cccc(NC(=N)N)c1 [Example 96, N-[2-[[[3-[(aminoiminomethyl)amino]phenyl]carbonyl]amino]acetyl]-β-alanine, ethyl ester] | 1810 nM | 5400 nM
5 | O=C(O)CC(NC(=O)CNC(=O)c1cccc(NC2=NCCCCC2)c1)c1cc(Cl)cc(Cl)c1 (racemic) [Example 189, (±)β-[[2-[[[3-[(3,4,5,6-tetrahydro-2H-azepin-7-yl)amino]phenyl]carbonyl]amino]acetyl]amino]-3,5-dichlorobenzenepropanoic acid, trifluoroacetate salt] | 4.03 nM | 1980 nM
6 | O=C(O)CC(NC(=O)CNC(=O)c1cccc(NC(=O)NCc2ccccc2)c1)c1cc(Cl)cc(Cl)c1 (stereo not drawn) [Example 269, 3,5-dichloro-β-[[2-[[[3-[[[(phenylmethyl)amino]carbonyl]amino]phenyl]carbonyl]amino]acetyl]amino]benzenepropanoic acid, monohydrate] | 209 nM | 25400 nM
7 | N=C(N)Nc1cccc(C(=O)NCC(=O)NC(CC(=O)O)c2cccc(-c3ccccc3)c2)c1 (stereo not drawn) [Example 242, β-[[2-[[[3-[(aminoiminomethyl)amino]phenyl]carbonyl]amino]acetyl]amino][1,1′-biphenyl]-3-propanoic acid] | 2.28 nM | 533 nM
8 | N=C(N)Nc1cccc(C(=O)NCC(=O)NC(CC(=O)O)c2c(F)c(F)cc(F)c2F)c1 (racemic) [Example 365, (±)β-[[2-[[[3-[(aminoiminomethyl)amino]phenyl]carbonyl]amino]acetyl]amino]-2,3,5,6-tetrafluorobenzenepropanoic acid, trifluoroacetate salt] | 16.9 nM | 8470 nM
9 | N=C(N)Nc1cccc(C(=O)NCC(=O)NC(CC(=O)O)c2ccccc2OCC(=O)O)c1 (stereo not drawn) [Example 255, β-[[2-[[[3-[(aminoiminomethyl)amino]phenyl]carbonyl]amino]acetyl]amino]-2(carboxymethoxy)benzenepropanoic acid, trifluoroacetate salt] | 28.4 nM | 6050 nM
10 | Cc1cc(Br)cc(C(CC(=O)O)NC(=O)CNC(=O)c2cccc(NC(=N)N)c2)c1 (racemic) [Example 212, (±)β-[[2-[[[3-[(aminoiminomethyl)amino]phenyl]carbonyl]amino]acetyl]amino]-3-bromo-5-methylbenzenepropanoic acid, trifluoroacetate salt] | 1.93 nM | 306 nM
11 | Nc1nnc(Nc2cccc(C(=O)NCC(=O)NC(CC(=O)O)c3cc(Cl)cc(Cl)c3)c2)[nH]1 (stereo not drawn) [Example 282, β-[[2-[[[3-[(5-amino-1,2,4-triazol-3-yl)amino]phenyl]carbonyl]amino]acetyl]amino]-3,5-dichlorobenzenepropanoic acid, trifluoroacetate salt] | 864 nM | 9770 nM
12 | O=C(O)CC(NC(=O)CNC(=O)c1cccc(NC2=NCCC2)c1)c1cc(Cl)cc(Cl)c1 (racemic) [Example 203, (±)β-[[2-[[[3-[(3,4-dihydro-2H-pyrrol-5-yl)amino]phenyl]carbonyl]amino]acetyl]amino]-3,5-dichlorobenzenepropanoic acid, trifluoroacetate salt] | 3.56 nM | 650 nM
13 | N=C(N)Nc1cccc(C(=O)NCC(=O)NC(CC(=O)O)c2ccc(Br)s2)c1 (stereo not drawn) [Example 366, β-[[2-[[[3-[(aminoiminomethyl)amino]phenyl]carbonyl]amino]acetyl]amino]-5-bromothiophene-2-propanoic acid, trifluoroacetate salt, monohydrate] | 0.44 nM | 91.3 nM
14 | C#C[C@H](CC(=O)O)NC(=O)CNC(=O)c1cccc(N/C(=N\C#N)NCc2ccc(S(N)(=O)=O)cc2)c1 [Example 158, 3S-[[2-[[[3-[[[[(4-(aminosulfonyl)phenylmethyl]amino](cyanoimino)methyl]amino]phenyl]carbonyl]amino]acetyl]amino]-4-pentynoic acid, trifluoroacetate salt, monohydrate] | 10.1 nM | 547 nM
15 | N=C(N)Nc1cccc(C(=O)NCC(=O)NC(CC(=O)O)c2cc(Br)cc(Cl)c2O)c1 (stereo not drawn) [Example 265, β-[[2-[[[3-[(aminoiminomethyl)amino]phenyl]carbonyl]amino]acetyl]amino]-5-bromo-3-chloro-2-hydroxybenzenepropanoic acid, trifluoroacetate salt] | 6.19 nM | 706 nM
16 | N=C(N)Nc1cccc(C(=O)NCC(=O)NC(CC(=O)O)c2cc(Cl)cc(Br)c2)c1 (racemic) [Example 214, (±)β-[[2-[[[3-[(aminoiminomethyl)amino]phenyl]carbonyl]amino]acetyl]amino]-3-bromo-5-chlorobenzenepropanoic acid, trifluoroacetate salt] | 2.35 nM | 454 nM
17 | CCOC(=O)CC(NC(=O)CNC(=O)c1cccc(NC(N)=S)c1)c1cccnc1 (stereo not drawn) [Example 113, ethyl β-[[2-[[[3-[(aminothioxomethyl)amino]phenyl]carbonyl]amino]acetyl]amino]pyridine-3-propanoate, trifluoroacetate salt] | 276 nM | ≥ 100000 nM
18 | O=C(O)CC(NC(=O)CNC(=O)c1cccc(NC(=O)NCc2ccccc2)c1)c1cccc(Cl)c1 (stereo not drawn) [Example 270, 3-chloro-β-[[2-[[[3-[[[(phenylmethyl)amino]carbonyl]amino]phenyl]carbonyl]amino]acetyl]amino]benzenepropanoic acid, monohydrate] | 5.51 nM | 9160 nM
